Square brackets hold non-standard residues; d marks the D form. Peptide text beside a SMILES is read from it. MeBmt = C/C=C/C[C@@H](C)[C@@H](O)[C@H](NC)C(=O)O; NEtVal = CCN[C@H](C(=O)O)C(C)C; NMeL = CN[C@@H](CC(C)C)C(=O)O; NMeV = CN[C@H](C(=O)O)C(C)C; dHiv = CC(C)[C@@H](O)C(=O)O; NMeA = CN[C@@H](C)C(=O)O; dNMeA = CN[C@H](C)C(=O)O; Abu = CC[C@H](N)C(=O)O
Assays:
[1] = Cytostatic/cytotoxic effect, MTT (MTS) assay in Huh 9-13 cells; assay type: cell-based; conditions: human, Huh 9-13 cells containing the HCV genotype 1b Con1 replicon, metabolic activity reduced to 50% of untreated cells
Text: Assays used Huh 9-13 containing the hepatitis C virus genotype 1b Con1 replicon (Lohmann et al. 2001. J. Virol. 75:1437-1449; and Lohmann et al. 1999. Science. 285:110-113). Cells were sub-cultured in cell growth medium DMEM supplemented with 10% FCS, 1% non-essential amino acids, 1% penicillin/streptomycin and 2% Geneticin (Invitrogen) at a ratio of 1:4-1:5 and grown for 3-4 days in 75 cm^2 tissue culture flasks (Techno Plastic Products), were harvested and seeded in assay medium (DMEM, 10% FCS, 1% non-essential amino acids, 1% penicillin/streptomycin) at a density of 5 000 cells/well (100 μl/well) in 96-well tissue culture microtiter plates (Falcon, Beckton Dickinson) for evaluation of cytostatic/cytotoxic and antiviral effect. The microtiter plates were incubated overnight (37° C., 5% CO2, 95-99% relative humidity), yielding a non-confluent cell monolayer.
Cell density and cytostatic effects were estimated in parallel cultures in regular 96-well plates (Beckton-Dickinson) using the MTT assay (CellTiter 96 AQueous Non-Radioactive Cell Proliferation Assay, Promega). In this assay, 3-(4,5-dimethyl-thiazol-2-yl)-5-(3-carboxymethoxy-phenyl)-2-(4-sulfophenyl)-2H-tetrazolium (MTS) is bioreduced to a formazan that is quantified at 498 nm in a plate reader. Formazan production is directly correlated with number of life cells. Absorbance was measured at a wavelength of 498 nm (Safire^2, Tecan) and optical densities (OD values) were converted to percentage of untreated controls.
The compounds were dissolved in DMSO at a concentration of 4 mmole/L. Stock solutions were immediately used to set up the experiments. The compounds were tested at 24 different concentrations ranging from 0.0001 μmole/L to 100 μmole/L. The highest concentration of DMSO in the assay was determined to be 2.5% (at 100 μM final concentration of the compound). During the assay setup, the DMSO percentage decreased concomitantly with decrease in concentration of the compound.
The EC50 (value derived from the dose-response curve) represents the concentration at which 50% inhibition of viral replication is observed. The CC50 (value derived from the dose-response curve) represents the concentration at which the metabolic activity of the cells is reduced to 50% of the metabolic activity of untreated cells.
Results from these experiments permitted calculation of EC50±SD (standard deviation or Std. Dev.), which is the effective concentration required to inhibit HCV replicon replication by 50%, and of CC50±SD (whenever possible), which is the concentration required that inhibits the proliferation of exponentially growing cells by 50%. EC50 and CC50±SD values were calculated respectively as the median of all the EC50, or CC50 values derived from the 3 individual dose-response curves. The selectivity index (SI), indicative of the therapeutic window of the compound was calculated as the ratio between CC50 and EC50.

[2] = molecular target: multidrug resistance associated protein 2 (MRP2) (Homo sapiens, UniProt Q92887); conditions: for MRP2 fold Debio 025: IC50 ratio compared to Debio 025
Protocol: (§1) To determine whether the cycloundecadepsipeptide compounds of the present invention interact with hepatic transporters, experiments were carried out that compared the concentration-dependent inhibition towards the multidrug resistance associated protein 2 (MRP2), the organic anion transporting polypeptide 1B1 (OATP1B1), the bile salt export pump (BSEP) and the sodium-taurocholate cotransporting polypeptide (NTCP). These transporters are involved in the hepatobiliary circulation of endogenous compounds such as bile salts or bilirubin (for a review, see C. Pauli-Magnus et al, J. Hepatology, 2005, 43:342-357). Some of them also contribute to the elimination of xenobiotics.
(§2) MRP2 and BSEP were expressed by SOLVO Biotechnology in Spodoptera frugiperda (Sf9) ovarian cells, by infecting the insect cells with a recombinant baculovirus. The inhibition of the transport of the radioactive probe substrates (estradiol-17-beta-glucuronide and taurocholate for MRP2 and BSEP, respectively) into inside-out membrane vesicles, containing the transporter, was measured by scintillation counting.
(§3) The IC50 (defined as the concentration required for inhibiting the transport of the probe substrate by 50%, half maximal inhibitory concentration) of the compounds was derived from the concentration-response curve and compared to the IC50 of Debio 025 (IC50 ratio expressed as “fold Debio 025” in the tables).

[3] = molecular target: bile salt export pump (BSEP) (Homo sapiens, UniProt O95342); conditions: for BSEP fold Debio 025: IC50 ratio compared to Debio 025
Protocol: as §1, §2, §3

[4] = system: Concanavalin-A-induced T-cell proliferation; assay: Concanavalin-A-induced T-cell proliferation assay (immunosuppression); assay type: cell-based; conditions: inhibition of Concanavalin-A-induced T-cell proliferation
Protocol: To determine whether the cycloundecadepsipepide compounds of the present invention have a non-immunosuppression activity, experiments were carried out that compared the dose-dependent inhibition of Concanavalin-A-induced T-cell proliferation (see Table 2).
The method of the assays were performed as described by Dayton et al. (1992. Mol. Pharmacol. 41. 671-676) and Mishell et al. (1980. Cell proliferation in selected methods in cellular immunology, V, XXIX, W.H. Freeman Co., San Francisco, Calif. 153-160).

[5] = molecular target: organic anion transporting polypeptide 1B1 (OATP1B1) (Homo sapiens, UniProt Q9Y6L6)
Protocol: as §1
OATP1B1 and NTCP assays were performed with Chinese hamster ovary (CHO) cells expressing these human uptake transporters. The amount of the transported probe substrate (estrone-3-sulfate and taurocholate for OATP1B1 and NTCP, respectively) was determined by liquid scintillation or fluorescent photometry after cell lysis.
as §3

[6] = molecular target: T1, sodium-taurocholate cotransporting polypeptide (NTCP) (Homo sapiens, UniProt Q14973); assay: NTCP inhibition, taurocholate uptake in CHO cells; assay type: in vitro ADME; conditions: for NTCP fold Debio 025: IC50 ratio compared to Debio 025
T1 sequence (Q14973 1-349): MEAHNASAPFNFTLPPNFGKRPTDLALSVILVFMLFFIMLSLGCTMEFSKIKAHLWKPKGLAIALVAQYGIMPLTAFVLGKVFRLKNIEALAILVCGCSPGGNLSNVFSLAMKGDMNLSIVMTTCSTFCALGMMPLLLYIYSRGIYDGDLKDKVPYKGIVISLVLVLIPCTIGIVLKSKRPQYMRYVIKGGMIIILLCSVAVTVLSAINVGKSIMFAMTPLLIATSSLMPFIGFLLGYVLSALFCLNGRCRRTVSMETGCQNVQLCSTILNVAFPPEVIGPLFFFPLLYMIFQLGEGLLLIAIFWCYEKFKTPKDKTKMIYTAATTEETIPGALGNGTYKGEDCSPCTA

[7] = system: hepatitis C virus genotype 1b Con1 replicon; assay: HCV replicon assay, replicon RNA by RT-qPCR in Huh 9-13 cells; assay type: cell-based; conditions: 50% inhibition of HCV replicon replication, 3 dose-response curves
Protocol: For the evaluation of antiviral effects, assay medium was aspirated and the plates with dry monolayer were stored at −80° C. awaiting extraction. Following thawing of the plates at room temperature, the cell monolayer was lysed with 100 μl of cell-to-cDNA lysis buffer (Invitrogen). Lysis of the cells was allowed to proceed for 10 min at room temperature after which all liquid was transferred to a PCR plate (Axygen). The PCR plate was incubated for 15 min at 75° C. […] The lysate was diluted 1:2 with RNase/DNase-free water, after which 5 μl was transferred to the real-time PCR plate (Applied Biosystems).
Replicon RNA content was quantified using a real-time quantitative one-step RT-PCR method (RT-qPCR): Low Rox One-Step RT-qPCR master mix, Abgene). […] The fluorogenic probe was 5′-[sequence]-3′. The analysis of the samples were performed using a SDS7500F (Applied Biosystems, standard thermocycling profile: 30 min at 48° C., 10 min at 95° C., 40 cycles of 15 sec at 95° C. and 1 min at 60° C.) after which replicon RNA quantities were converted to percentage of untreated controls.

organic anion transporting polypeptide 1B1 (OATP1B1), sequence (Q9Y6L6 whole entry): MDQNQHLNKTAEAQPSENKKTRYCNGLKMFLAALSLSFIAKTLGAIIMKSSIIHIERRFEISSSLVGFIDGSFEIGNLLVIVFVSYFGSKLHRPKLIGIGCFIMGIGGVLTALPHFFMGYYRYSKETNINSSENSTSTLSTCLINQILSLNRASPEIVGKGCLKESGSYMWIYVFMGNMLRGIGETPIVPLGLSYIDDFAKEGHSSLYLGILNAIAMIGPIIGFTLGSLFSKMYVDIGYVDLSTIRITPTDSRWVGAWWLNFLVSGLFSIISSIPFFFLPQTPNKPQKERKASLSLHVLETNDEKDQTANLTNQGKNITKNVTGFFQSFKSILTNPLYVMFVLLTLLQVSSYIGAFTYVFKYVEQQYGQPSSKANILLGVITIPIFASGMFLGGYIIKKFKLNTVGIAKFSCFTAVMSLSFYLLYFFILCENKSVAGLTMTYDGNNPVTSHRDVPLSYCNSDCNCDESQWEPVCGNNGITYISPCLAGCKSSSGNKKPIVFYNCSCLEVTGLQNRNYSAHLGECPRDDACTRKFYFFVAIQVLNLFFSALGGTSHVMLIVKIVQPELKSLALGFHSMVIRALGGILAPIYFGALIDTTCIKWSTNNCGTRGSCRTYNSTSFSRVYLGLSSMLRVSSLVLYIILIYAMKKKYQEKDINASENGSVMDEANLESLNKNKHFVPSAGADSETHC
multidrug resistance associated protein 2 (MRP2), sequence (Q92887 whole entry): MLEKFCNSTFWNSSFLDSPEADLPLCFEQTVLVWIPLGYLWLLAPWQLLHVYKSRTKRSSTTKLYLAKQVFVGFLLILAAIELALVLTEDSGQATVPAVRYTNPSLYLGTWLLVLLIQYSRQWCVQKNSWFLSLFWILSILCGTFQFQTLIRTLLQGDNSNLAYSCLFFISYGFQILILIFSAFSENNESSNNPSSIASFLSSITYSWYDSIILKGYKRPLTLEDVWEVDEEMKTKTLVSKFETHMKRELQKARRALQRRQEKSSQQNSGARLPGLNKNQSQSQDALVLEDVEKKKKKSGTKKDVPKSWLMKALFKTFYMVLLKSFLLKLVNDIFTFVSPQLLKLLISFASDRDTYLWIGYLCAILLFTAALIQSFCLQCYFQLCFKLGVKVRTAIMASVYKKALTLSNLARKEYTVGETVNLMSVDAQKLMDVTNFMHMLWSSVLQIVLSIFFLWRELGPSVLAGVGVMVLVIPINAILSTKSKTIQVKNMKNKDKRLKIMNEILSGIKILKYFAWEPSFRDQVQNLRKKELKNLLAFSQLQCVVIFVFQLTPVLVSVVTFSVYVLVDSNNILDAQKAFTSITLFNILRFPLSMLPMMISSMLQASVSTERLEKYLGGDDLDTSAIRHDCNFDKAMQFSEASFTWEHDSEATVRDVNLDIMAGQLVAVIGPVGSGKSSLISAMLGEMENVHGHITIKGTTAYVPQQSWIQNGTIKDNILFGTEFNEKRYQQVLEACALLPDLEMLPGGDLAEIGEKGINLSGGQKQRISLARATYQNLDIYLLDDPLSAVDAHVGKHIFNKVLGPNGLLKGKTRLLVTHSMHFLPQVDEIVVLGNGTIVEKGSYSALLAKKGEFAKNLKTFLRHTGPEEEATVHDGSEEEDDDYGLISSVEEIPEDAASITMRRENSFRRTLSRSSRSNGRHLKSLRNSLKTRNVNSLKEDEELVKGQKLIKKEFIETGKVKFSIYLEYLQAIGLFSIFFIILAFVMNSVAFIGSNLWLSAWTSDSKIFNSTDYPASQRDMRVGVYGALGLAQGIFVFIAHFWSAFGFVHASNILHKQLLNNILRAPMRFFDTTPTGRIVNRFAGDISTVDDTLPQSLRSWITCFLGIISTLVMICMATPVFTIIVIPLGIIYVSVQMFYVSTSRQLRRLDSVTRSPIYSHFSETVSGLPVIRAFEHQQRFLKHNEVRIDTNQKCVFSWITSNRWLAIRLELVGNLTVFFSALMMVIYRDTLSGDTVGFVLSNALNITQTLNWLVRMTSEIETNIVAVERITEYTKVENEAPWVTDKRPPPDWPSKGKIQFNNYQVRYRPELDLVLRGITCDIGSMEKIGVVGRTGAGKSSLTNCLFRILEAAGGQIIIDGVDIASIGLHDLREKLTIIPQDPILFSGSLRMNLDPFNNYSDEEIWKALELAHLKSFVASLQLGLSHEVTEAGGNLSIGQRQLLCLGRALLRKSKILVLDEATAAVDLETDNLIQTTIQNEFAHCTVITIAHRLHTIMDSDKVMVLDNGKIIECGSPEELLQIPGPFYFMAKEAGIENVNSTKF
bile salt export pump (BSEP), sequence (O95342 whole entry): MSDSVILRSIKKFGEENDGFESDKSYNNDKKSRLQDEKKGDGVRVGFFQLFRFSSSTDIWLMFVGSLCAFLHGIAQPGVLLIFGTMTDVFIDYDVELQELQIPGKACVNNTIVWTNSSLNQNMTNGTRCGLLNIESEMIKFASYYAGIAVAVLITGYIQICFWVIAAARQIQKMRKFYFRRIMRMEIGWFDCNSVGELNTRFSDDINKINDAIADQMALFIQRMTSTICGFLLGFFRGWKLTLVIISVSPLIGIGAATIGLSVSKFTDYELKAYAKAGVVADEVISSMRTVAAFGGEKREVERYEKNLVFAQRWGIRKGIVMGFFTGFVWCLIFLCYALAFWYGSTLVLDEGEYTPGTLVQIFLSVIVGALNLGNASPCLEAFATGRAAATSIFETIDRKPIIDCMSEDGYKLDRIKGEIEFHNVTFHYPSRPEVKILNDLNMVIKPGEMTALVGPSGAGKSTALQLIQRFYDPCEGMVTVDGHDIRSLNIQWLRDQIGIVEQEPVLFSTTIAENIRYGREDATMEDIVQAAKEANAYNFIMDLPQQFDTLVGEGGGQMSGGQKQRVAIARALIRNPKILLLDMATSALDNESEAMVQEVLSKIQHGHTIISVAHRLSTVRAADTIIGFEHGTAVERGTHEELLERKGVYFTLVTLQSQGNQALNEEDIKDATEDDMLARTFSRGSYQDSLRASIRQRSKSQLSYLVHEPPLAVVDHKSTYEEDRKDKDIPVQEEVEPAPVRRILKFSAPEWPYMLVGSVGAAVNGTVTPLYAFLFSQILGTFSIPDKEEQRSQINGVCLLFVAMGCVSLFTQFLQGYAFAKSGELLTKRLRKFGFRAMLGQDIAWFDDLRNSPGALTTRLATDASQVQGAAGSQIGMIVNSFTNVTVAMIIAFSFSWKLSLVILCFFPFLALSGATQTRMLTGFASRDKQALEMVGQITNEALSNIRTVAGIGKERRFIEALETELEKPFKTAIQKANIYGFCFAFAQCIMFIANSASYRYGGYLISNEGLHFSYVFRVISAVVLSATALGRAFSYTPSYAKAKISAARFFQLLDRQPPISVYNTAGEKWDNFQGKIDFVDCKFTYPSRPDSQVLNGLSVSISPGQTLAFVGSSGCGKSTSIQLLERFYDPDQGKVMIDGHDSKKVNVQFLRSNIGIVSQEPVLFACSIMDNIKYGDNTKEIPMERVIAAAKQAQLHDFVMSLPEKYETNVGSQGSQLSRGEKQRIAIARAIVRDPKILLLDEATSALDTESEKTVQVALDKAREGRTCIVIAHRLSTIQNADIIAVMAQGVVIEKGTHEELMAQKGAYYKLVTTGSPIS

SMILES | CC50 [1] | IC50 [2] | MRP2 fold Debio 025 [2] | IC50 [3] | BSEP fold Debio 025 [3] | IC50 [4] | IC50 [5] | OATP1B fold Debio 025 [5] | NTCP fold Debio 025 [6] | IC50 ([6]; probe taurocholate, CHO cells) | EC50 [7] | MRP2 IC50 [2] | NTCP IC50 ([6]; probe taurocholate, CHO cells)
C/C=C/C[C@@H](C)[C@@H](O)[C@H]1C(=O)N[C@@H](CC)C(=O)N(C)[C@H](C)C(=O)N(C)[C@@H](C(C)C)C(=O)N[C@@H](C(C)C)C(=O)N(C)[C@@H](C)C(=O)N[C@@H](C)C(=O)O[C@H](C(C)C)C(=O)N(C)[C@@H](CC(C)C)C(=O)N[C@@H](CC(C)C)C(=O)N(C)[C@@H](C(C)C)C(=O)N1C [(Ie), cyclo-(MeBmt-Abu-D-MeAla-MeVal-Val-MeAla-Ala-D-Hiv-MeLeu-Leu-MeVal)] (cyclo(A[dHiv][NMeL]L[NMeV][MeBmt][Abu][dNMeA][NMeV]V[NMeA])) | 8.3 µM | 20 µM | 0.73 | 0.6 µM | 0.40 | 2 µM | 0.58 µM | 0.72 | 0.12 | 26 µM | 0.07 µM |  | 
C/C=C/C[C@@H](C)[C@@H](O)[C@H]1C(=O)N[C@@H](CC)C(=O)N(C)[C@H](C)C(=O)N(CC)[C@@H](C(C)C)C(=O)N[C@@H](CC(C)C)C(=O)N(C)[C@@H](CC(C)C)C(=O)N[C@@H](C)C(=O)O[C@H](C(C)C)C(=O)N(C)[C@@H](CC(C)C)C(=O)N[C@@H](CC(C)C)C(=O)N(C)[C@@H](C(C)C)C(=O)N1C [(Ib), cyclo-(MeBmt-Abu-D-MeAla-EtVal-Leu-MeLeu-Ala-D-Hiv-MeLeu-Leu-MeVal)] (cyclo(A[dHiv][NMeL]L[NMeV][MeBmt][Abu][dNMeA][NEtVal]L[NMeL])) | 52.3 µM |  |  | 0.15 µM | 1.6 | 9.44 µM | 6.2 µM | 0.07 | 0.05 | 65 µM | 0.037 µM | n.i. | 
C/C=C/C[C@@H](C)[C@@H](O)[C@H]1C(=O)N[C@@H](C(C)C)C(=O)N(C)[C@H](C)C(=O)N(C)[C@@H](C(C)C)C(=O)N[C@@H]([C@@H](C)CC)C(=O)N(C)[C@@H](CC(C)C)C(=O)NCC(=O)O[C@H](C(C)C)C(=O)N(C)[C@@H](CC(C)C)C(=O)N[C@@H](CC(C)C)C(=O)N(C)[C@@H](C(C)C)C(=O)N1C [(Ic), cyclo-(MeBmt-Val-D-MeAla-MeVal-Ile-MeLeu-Gly-D-Hiv-MeLeu-Leu-MeVal)] (cyclo(G[dHiv][NMeL]L[NMeV][MeBmt]V[dNMeA][NMeV]I[NMeL])) | 86.9 µM | 2.2 µM | 6.6 | 0.16 µM | 1.5 | 0.984 µM | 2.3 µM | 0.18 | 0.11 | 30 µM | 0.022 µM |  | 
C/C=C/C[C@@H](C)[C@@H](O)[C@H]1C(=O)N[C@@H](CC)C(=O)N(C)[C@H](C)C(=O)N(C)[C@@H](C(C)C)C(=O)N[C@@H](CC(C)C)C(=O)N(C)[C@@H](CC(C)C)C(=O)NCC(=O)O[C@H](C(C)C)C(=O)N(C)[C@@H](CC(C)C)C(=O)N[C@@H](CC(C)C)C(=O)N(C)[C@@H](C(C)C)C(=O)N1C [(Ia), cyclo-(MeBmt-Abu-D-MeAla-MeVal-Leu-MeLeu-Gly-D-Hiv-MeLeu-Leu-MeVal)] (cyclo([Abu][dNMeA][NMeV]L[NMeL]G[dHiv][NMeL]L[NMeV][MeBmt])) | 60.1 µM |  |  | 0.4 µM | 0.60 | 2 µM | 18 µM | 0.02 |  |  | 0.034 µM | n.i. | n.i.
